Data reported in patent US20260216109A1, “TREATMENT OF SKIN DISORDERS WITH SHORT CHAIN FATTY ACIDS” (Temple University-Of The Commonwealth System of Higher …, priority 2023, published 2026).

Experiments:
[1] = tested on: imiquimod (IMQ)-induced psoriasis model mice; assay: Ear skin thickness, IMQ-induced psoriasis model in mice; assay type: in vivo, mouse
Procedure: (§1) Topical application of IMQ, a TLR7/8 ligand and potent immune activator induced and exacerbated psoriasis in mice. The mouse IMQ-induced psoriasis (IMQ Ps) model was initiated by a repeated topical application of Aldara© cream (containing 5% IMQ) over 6 consecutive days. Female Balb/c mice (9 weeks of age at reception, ordered with 20 g, Charles River, Sulzfeld, Germany; n=10 mice/group, exception healthy controls n=4) received daily a topical application of 62.5 mg of commercially available IMQ cream (5% Aldara©) on the beforehand (day −1) shaved (~2 cm×3 cm), depilated (Pilka© cream) back skin, and 7 mg on the outer right ear skin for 6 consecutive days, translating in a daily dose of approximately 3.5 mg IMQ. Healthy control mice were included in the study and were treated with vehicle cream (Vaseline; Bombastus-Werke AG) only instead of IMQ. Additionally, an IMQ disease control group was also included.
Before starting treatment on the day of disease induction (day 0), mice were randomized based on body weight to the respective group. […]
The added-up score (erythema plus scaling plus thickening), named disease severity score (scale 0-9), served then as marker for the severity of back skin inflammation. In addition, ear thickness of the right ear was determined daily by using an automatized caliper (Bayer AG, Germany).
Disease Severity Score was evaluated on a daily base starting with the induction of psoriasis by IMQ application (day 0) until the end (day 6) of the study. The extent of ear thickness of the IMQ-treated right ear was determined daily by using an automatized caliper (Bayer AG, Germany) as described in Example 4.
Ear thickening, one of the disease severity score parameters, was evaluated in IMQ-treated mice (FIG. 60 and FIG. 61). The extent of ear thickness of the IMQ-treated right ear was determined daily by using an automatized caliper (Bayer AG, Germany) as described in Example 4.

[2] = tested on: imiquimod (IMQ)-induced psoriasis model mice; assay: Back skin scaling, IMQ-induced psoriasis model in mice; assay type: in vivo, mouse; conditions: for skin scaling: Example 12
Procedure: as §1
Disease Severity Score was evaluated on a daily base starting with the induction of psoriasis by IMQ application (day 0) until the end (day 6) of the study. The psoriasis severity on the back skin of the mice was evaluated by using a modified scoring system developed by van der Fits et al., based on the clinical PASI (psoriasis area and severity index) and takes skin erythema, scaling and skin thickening into account. Scoring was performed by the same lab technician throughout the experiment. Each parameter was scored independently on a scale from 0 to 3.
Before starting treatment on the day of disease induction (day 0), mice were randomized based on body weight to the respective group. To evaluate the anti-inflammatory efficacy of the two compounds in mouse IMQ psoriasis, mice were treated twice daily ([…] in sterile water; m/m/v) alone, with fixed dose of SCFA (in ddH2O) alone, […] dose of SCFA. Healthy and IMQ disease controls were orally treated in parallel with vehicle only. All treatments started with first application of IMQ on day 0.
Skin scaling, one of the disease severity score parameters, was evaluated in IMQ-treated mice (FIGS. 57-59).

IFN-γ = assay: Multiplex (MSD V-PLEX) cytokine release, InflammaSkin: IFN-γ; assay type: cell-based, human; conditions: Example 2; Day 7 supernatant; 1 μM Otezla or SCFA (45 μg/mL Ca-propionate + 1 mM Ca-/Mg-butyrate) systemic, 0.05% Betamethasone topical; vs untreated InflammaSkin
Procedure: A total of 16 biopsies of 15 mm diameter were produced from a single donor. Two NativeSkin® models with 12/15 mm silicon rings were produced from the biopsies according to standard procedures in place, and cultured under cell culture conditions (37° C., 5% CO2, max. humidity) for 7 days with 2 mL of standard NativeSkin® medium renewed every day. Fourteen PSO-InflammaSkin® models with 12/15 mm silicon rings were produced by inducing in situ activation and Th17/Th1 polarization of skin resident T cells with a proprietary cocktail, and cultured under cell culture conditions (37° C., 5% CO2, max. humidity) for 7 days with 2 mL of PSO-InflammaSkin® culture medium renewed every day. […]
Human pro-inflammatory cytokines released in the supernatant were quantified using the V-PLEX Human IL-17A Kit (MesoScale Discovery, reference: K151RFD-1) and V-PLEX Human custom Pro-inflammatory. […]
Samples were diluted four times for plate 2 and two times for plate 1. Samples and standards were assessed in duplicate. Plates were read on MesoScale Discovery Quickpleax SQ 120 plate reader and values expressed in pg/mL.
A statistical analysis was performed. […] First, the distribution's normality of the two compared group was assessed. […] If the two distributions were normal, the homogeneity of variances was assessed using a Fisher test on the variances. […]

CCOc1cc([C@@H](CS(C)(=O)=O)N2C(=O)c3cccc(NC(C)=O)c3C2=O)ccc1OC [Otezla, Apremilast]
ear thickness ([1]; Example 7, Apremilast low dose (2.5 mg/kg BID), oral, alone): did not show any inhibitory influence on ear thickness
ear thickness ([1]; Example 7, Apremilast mid and high dose (5 and 7 mg/kg BID), oral, alone): inhibited
ear thickness ([1]; Example 12, day 6, Apremilast monotherapy, both doses (12 mg/kg and 25 mg/kg BID)): did not show any inhibitory influence on ear thickness at day 6
back skin scaling (desquamation) over time ([2]; Example 9, Apremilast 25 mg/kg BID, SCFA fixed dose (120 mg/kg/day Ca-propionate + 1,100 mg/kg/day Ca-/Mg-butyrate), alone or combined, oral): able to inhibit the skin scaling from day 3 to day 5
cumulative evaluation of skin scaling over the entire course of the study ([2]; Example 9, Apremilast 25 mg/kg BID, SCFA fixed dose (120 + 1,100 mg/kg/day), alone or combined, p<0.01): significant and similar beneficial effects
skin scaling ([2]; day 5 and day 6, Apremilast 25 mg/kg BID alone, or combined with fixed dose SCFA (60 + 1,100 mg/kg/day)): significantly inhibited skin scaling on day 5 (p<0.05) and day 6 (p<0.01)
skin scaling ([2]; day 6, fixed dose SCFA alone, Apremilast 12 mg/kg BID alone, or both combined): did not reach significance at day 6
IFN-γ secretion (IFN-γ): significantly reduced
